Reference: US11439696B2, “Modulation of proprotein convertase subtilisin/kexin 9 expression (PCSK9) with HSP 27 and/or HSP25” (PEMI31 Therapeutics Inc., priority 2015, dated 2022)
“And” between values parts separate entries of the source, which are not always exact repeats. Equal values may be shown once.

Tests used:
PCSK9 [1] = assay: PCSK9 secretion from HepG2 (liver) cells with increasing doses of Atorvastatin; assay type: cell-based; conditions: HepG2, increasing doses of AV (FIG. 12)
Method: […] At the end of incubation period, the medium was removed and centrifuged at 4,000 rpm for 10 min at 4° C. to remove a small amount of residual cells and debris. The supernatant fraction was stored at 4° C. until analyzed.
Total cell or tissue lysates were prepared in lysis buffer (20 mM Tris-Hcl pH8.0, 150 mM NaCl, 0.1% SDS, 0.1 mM PMSF). Lysates were cleared by centrifugation at 4° C., 12,000 rpm for 10 min, and protein concentrations were determined using the Bradford protein assay with BSA as the standard. Samples (30 μl culture medium, 50 μg for cell and 25 μg for liver) were separated by SDS-PAGE under reducing conditions, transferred to IMMOBILON® PVDF (IMMOBILON is a registered trademark of Millipore Corp.) using IBLOT® Dry Blotting System (Life Technologies; IBLOT is a registered trademark of Invitrogen Corp., Carlsbad, Calif., USA) and subsequently membranes were immunoblotted with the following antibodies: LDL-R (Santa Cruz, 1:1000) and PCSK9 (Santa Cruz, 1:1000); β-Actin (Santa Cruz, 1:1000) was used as the loading control. Appropriate secondary HRP-conjugated antibodies were used prior to visualization by enhanced chemiluminescence (ECL, Life technologies).

PCSK9 mRNA = PCSK9 mRNA expression in HepG2 (liver) cells by quantitative RT-PCR; assay type: cell-based; conditions: HepG2 (FIG. 14)
LDL-Receptor (LDL-R) = assay: LDL-Receptor fluorescent immunolabelling of HepG2 (liver) cells; assay type: cell-based; conditions: HepG2, 17β-estradiol 100 nM or rHSP27 100 μg overnight (16 hours) (FIG. 17)
Method: HepG2 cells (10^5 cells) were seeded in SPL Coverglass sterile dish 35×10 mm (Bio Lab) for 2 days. Cells were then treated with 17β-estradiol (100 nM) or rHSP27 (100 μg) overnight (16 hours). After washing, cells were fixed in 4% paraformaldehyde, permeabilized in 0.5% (v/v) Triton x-100 for 10 minutes, washed, blocked in 10% horse serum (1 hour), washed, then incubated in primary antibody rabbit monoclonal to LDL-R (Ab52818; ABCAM; 1:100) 4° C. overnight. After washing, cells were incubated in secondary antibody fluorescein goat Anti-Rabbit IgG antibody (FI-1000; Vector Laboratories; 1:100) for 30 min at room temperature, then mounted with mounting medium with DAPI (VectaShield Antifade Mounting Medium with DAPI; Vector Labs H-1200) for at least 24 hour in the dark before visualization. Various controls were used, and included: (i) absence of the Triton treatement, and (ii) omitting the primary or secondary antibodies used for immunolabelling. Immunofluorescence 10^5 cells were seeded ina SPL coverglass sterile dish 35×10 mm (Bio Lab) for 2 days. The cells were then treated with 17 β-estradiol (100 nM) or rHSP27 (100 μg) overnight (16 hours). […] Mounted with mounting medium with DAPI (VectaShield Antifade Mounting Medium with DAPI; Vector Labs H-1200) for at least 24 hour in the dark before visualization with fluorescence microscopy.

LDL-Receptor = assay: Western blot (relative densitometry) of LDL-Receptor expression in HepG2 (liver) cells; assay type: cell-based; conditions: HepG2 (liver) cells treated for 6 h (FIG. 16)
Method: (§1) HepG2 cells (0.5×10^6 cells/60 mm well) were incubated on H-Glucose DMEM medium containing 10% FBS and 1×penicillin/streptomycin in the presence or absence of rHsp27 (200 μg) for specified time periods at 37° C. At the end of incubation period, the medium was removed and centrifuged at 4,000 rpm for 10 min at 4° C. to remove a small amount of residual cells and debris. The supernatant fraction was stored at 4° C. until analyzed.
(§2) Meanwhile, cells were washed three times with cold PBS, scraped off the dishes (after the addition of 1 ml lysis buffer (20 mM Tris-HCl; pH 8.0; 150 mM NaCl; 0.1 mM PMSF), and sonicated; whole cell lysates were then stored at −20° C. until use.
(§3) Total cell or tissue lysates were prepared in lysis buffer (20 mM Tris-Hcl pH8.0, 150 mM NaCl, 0.1% SDS, 0.1 mM PMSF). Lysates were cleared by centrifugation at 4° C., 12,000 rpm for 10 min, and protein concentrations were determined using the Bradford protein assay with BSA as the standard. […]

PCSK9 [2] = assay: Western blot (relative densitometry) of PCSK9 expression in HepG2 (liver) cells; assay type: cell-based; conditions: HepG2 (liver) cells treated for 1 h (FIG. 15)
Method: as §1, §2, §3
HepG2 cells in the 6-well plates were washed twice with phosphate-buffered saline and lifted by pipette with 1 ml PBS. […] The membrane fraction was re-suspended in PBS by sonication and the protein concentration was determined by Bradford reagent (Sigma). […] Signals on the membrane were visualized by chemi-luminescence of HRP substrate.

[3] = Stability of HSP27 in human serum at −20° C. (MRM-MS); assay type: physicochemical; conditions: two representative human sera, 3 weeks storage at −20° C. (FIG. 7E)
Method: The assay was fully validated according to the U.S. Food and Drug Administration (FDA) Bioanalytical method validation guideline (www.fda.dov/downloads/Drugs/GuidanceComplianceRegulatoryInformation/Guidances/UCM070107). Nine calibration standards of trypsin-digested recombinant HSP27 were prepared by serial dilution in concentrations of 1000; 500; 250; 125; 62.5; 31.25; 15.625; 7.8 and 0 ng/ml. The limit of detection (LOD) was calculated as the smallest detectable peak above baseline noise (signal-to-noise ratio>3:1). Calculating target peptide: AQUA peptide ratios of the peak area for each concentration level. Standard curves were constructed by linear regression analysis by excel. The same samples were analyzed 7 times and the repeatability was compared. Extraction efficiency and recovery were performed by comparing concentrations between samples without and with standard rHSP27. Matrix effect was assessed using double dilution test for the linearity when serum samples were 1, 2, 4 and 8 times diluted. Parallelism test was also applied to estimate matrix effect. Stability of HSP27 in human serum was estimated for 21 days at −20° C.

CC(C)c1c(C(=O)Nc2ccccc2)c(-c2ccccc2)c(-c2ccc(F)cc2)n1CC[C@@H](O)C[C@@H](O)CC(=O)O [AV, Atorvastatin]
secretion of PCSK9 (PCSK9 [1]): dose-dependent secretion | PCSK9 expression (mRNA) on treatment with AV (PCSK9 mRNA): increase

C[C@]12CC[C@@H]3c4ccc(O)cc4CC[C@H]3[C@@H]1CC[C@@H]2O [17 β-estradiol]
LDL-R signal (LDL-Receptor (LDL-R)): increased | increase in LDL-Receptor expression (LDL-Receptor): 116% | reduction in PCSK9 expression (PCSK9 [2]): 28%

endogenous HSP27: endogenous heat shock protein 27 in human serum samples, measured by MRM-MS
endogenous HSP27 remaining after storage [3]: 111+6 % of fresh sera and 87+5 % of fresh sera
